Converted amounts (≈) assume the structure as drawn. Read-outs that look alike come from different tables or passages of the source.
Assays:
InhA = target: T1, InhA (Mycobacterium tuberculosis, UniProt P9WGR1); experiment: Mycobacterium tuberculosis InhA Inhibition Assay (Enzyme Assay); assay type: biochemical; conditions: 5 nM InhA, 50 μM DDCoA, 50 μM NADH, PIPES buffer pH 6.8, initial velocities of NADH consumption
T1 construct: made in house; host or cells: E. coli
Experimental: InhA is able to reduce 2-trans enoyl-CoA esters with concomitant oxidation of NADH to NAD^+. The assay format is based on the kinetic detection of NADH consumption.
Assay for InhA inhibition is carried out with mycobacterium recombinant protein expressed and purified form E. coli. Standard assay conditions for the determination of kinetic constants and inhibitors activity use 5 nM of InhA, 50 μM of Dodecenoyl-CoA synthesized and purified as described by Quémard et al (DDCoA) and 50 μM of NADH as substrates, and it is carried out in 30 mM PIPES buffer pH 6.8, containing 0.05% of BSA. […] Triclosan is used as positive control in every experiment. One μl of compounds is added to the wells containing 25 μl of the DDCoA+NADH mix, the reaction is started by adding 50 μl of the enzyme solution. Fluorescence from NADH is followed at room temperature during 20 minutes in a fluorescent plate reader (excitation at 340 nm; emission at 480 nm). IC50 values are determined using initial velocities of NADH consumption. • Quémard A, Sacchettini J C, Dessen A, et al. Enzymatic characterization of the target for isoniazid in Mycobacterium tuberculosis. Biochemistry 1995; 34:8235-41. Results of the Mycobacterium tuberculosis InhA Inhibition Assay (Enzyme Assay)

[1] = test system: Mycobacterium tuberculosis H37Rv; experiment: Mycobacterium tuberculosis H37Rv Inhibition Assay (Whole Cell Assay); assay type: cell-based; conditions: ATCC 25618 / H37Rv, H37Rv strain (ATCC25618), Middlebrook 7H9, six days at 37° C., resazurin fluorescence after 48 hours

T1 sequence (P9WGR1 whole entry, looked up): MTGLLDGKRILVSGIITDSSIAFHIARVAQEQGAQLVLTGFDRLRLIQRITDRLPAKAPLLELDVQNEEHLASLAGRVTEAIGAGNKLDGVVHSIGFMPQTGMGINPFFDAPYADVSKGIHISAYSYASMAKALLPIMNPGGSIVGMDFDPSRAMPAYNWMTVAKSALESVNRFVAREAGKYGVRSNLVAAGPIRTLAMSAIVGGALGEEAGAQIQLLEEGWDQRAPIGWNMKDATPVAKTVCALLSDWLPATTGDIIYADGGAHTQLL

Structure (SMILES)	IC50 (InhA; read-out: IC50 value)	MIC [1]	IC50 (InhA; IC50 value)
Cc1csc(C(C)(O)c2nnc(Nc3ccn(Cc4cn5ccccc5n4)n3)s2)n1 (stereo not shown) [Example 24, 1-(5-{[1-(imidazo[1,2-a]pyridin-2-ylmethyl)-1H-pyrazol-3-yl]amino}-1,3,4-thiadiazol-2-yl)-1-(4-methyl-1,3-thiazol-2-yl)ethanol]	114 to 228 nM	4 to 10 µM (≈ 1.75 to 4.39 µg/mL)	
Cc1csc(C(C)(O)c2nnc(Nc3ccn(Cc4cnn(C)c4)n3)s2)n1 (stereo not shown) [Example 25, 1-[5-({1-[(1-methyl-1H-pyrazol-4-yl)methyl]-1H-pyrazol-3-yl}amino)-1,3,4-thiadiazol-2-yl]-1-(4-methyl-1,3-thiazol-2-yl)ethanol]		> 10 µM	248 to 1240 nM
Cc1csc(C(C)(O)c2nnc(Nc3ccn(Cc4c(C)noc4C)n3)s2)n1 (stereo not shown) [Example 26, 1-[5-({1-[(3,5-dimethyl-4-isoxazolyl)methyl]-1H-pyrazol-3-yl}amino)-1,3,4-thiadiazol-2-yl]-1-(4-methyl-1,3-thiazol-2-yl)ethanol]		> 10 µM	> 1200 nM
Cc1ccn(C(C)c2nnc(Nc3ccn(Cc4c(C)noc4C)n3)s2)n1 (stereo not shown) [Example 27, N-{1-[(3,5-dimethyl-4-isoxazolyl)methyl]-1H-pyrazol-3-yl}-5-[1-(3-methyl-1H-pyrazol-1-yl)ethyl]-1,3,4-thiadiazol-2-amine]		> 10 µM	> 1300 nM
Cc1csc(C(C)(O)c2nnc(Nc3cc(C)n(Cc4ncccc4F)n3)s2)n1 (stereo not shown) [Example 28, 1-[5-({1-[(3-fluoro-2-pyridinyl)methyl]-5-methyl-1H-pyrazol-3-yl}amino)-1,3,4-thiadiazol-2-yl]-1-(4-methyl-1,3-thiazol-2-yl)ethanol]		≤ 4 µM	≤ 116 nM
Cc1ccn(C(C)c2nnc(Nc3cc(C)n(Cc4ncccc4F)n3)s2)n1 (stereo not shown) [Example 29, N-{1-[(3-fluoro-2-pyridinyl)methyl]-5-methyl-1H-pyrazol-3-yl}-5-[1-(3-methyl-1H-pyrazol-1-yl)ethyl]-1,3,4-thiadiazol-2-amine]		≤ 4 µM	≤ 125 nM
CCOc1cnc(Cn2ccc(Nc3nnc(C(C)(O)c4nc(C)cs4)s3)n2)c(F)c1 (stereo not shown) [Example 30, 1-{5-[(1-{[5-(ethyloxy)-3-fluoro-2-pyridinyl]methyl}-1H-pyrazol-3-yl)amino]-1,3,4-thiadiazol-2-yl}-1-(4-methyl-1,3-thiazol-2-yl)ethanol]		> 10 µM	217 to 1080 nM
COc1c(C)cnc(Cn2ccc(Nc3nnc(C(C)(O)c4nc(C)cs4)s3)n2)c1C (stereo not shown) [Example 31, 1-{5-[(1-{[3,5-dimethyl-4-(methyloxy)-2-pyridinyl]methyl}-1H-pyrazol-3-yl)amino]-1,3,4-thiadiazol-2-yl}-1-(4-methyl-1,3-thiazol-2-yl)ethanol]		> 10 µM	219 to 1090 nM
Cc1csc(C(C)(O)c2nnc(Nc3ccn(Cc4c(F)cncc4F)n3)s2)n1 (stereo not shown) [Example 32, 1-[5-({1-[(3,5-difluoro-4-pyridinyl)methyl]-1H-pyrazol-3-yl}amino)-1,3,4-thiadiazol-2-yl]-1-(4-methyl-1,3-thiazol-2-yl)ethanol]		> 10 µM	> 1150 nM
Cc1csc(C(C)(O)c2nnc(Nc3ccn(Cc4[nH]ccc(=O)c4F)n3)s2)n1 (stereo not shown) [Example 33, 3-fluoro-2-{[3-({5-[1-hydroxy-1-(4-methyl-1,3-thiazol-2-yl)ethyl]-1,3,4-thiadiazol-2-yl}amino)-1H-pyrazol-1-yl]methyl}-4(1H)-pyridinone]		> 10 µM	> 1150 nM
Cc1csc(C(C)c2nnc(Nc3ccn(Cc4ncccc4F)n3)s2)n1 (stereo not shown) [Example 34, N-{1-[(3-fluoro-2-pyridinyl)methyl]-1H-pyrazol-3-yl}-5-[1-(4-methyl-1,3-thiazol-2-yl)ethyl]-1,3,4-thiadiazol-2-amine]	≤ 125 nM	≤ 4 µM	
Cc1cc(C)n(C(C)c2nnc(Nc3ccn(C(C)c4ncccc4F)n3)s2)n1 (stereo not shown) [Example 35, 5-[1-(3,5-dimethyl-1H-pyrazol-1-yl)ethyl]-N-{1-[1-(3-fluoro-2-pyridinyl)ethyl]-1H-pyrazol-3-yl}-1,3,4-thiadiazol-2-amine]	≤ 121 nM	> 10 µM	
CCOc1cccc(Cn2ccc(Nc3nnc(C(C)n4nc(C)cc4C)s3)n2)n1 (stereo not shown) [Example 36, 5-[1-(3,5-dimethyl-1H-pyrazol-1-yl)ethyl]-N-(1-{[6-(ethyloxy)-2-pyridinyl]methyl}-1H-pyrazol-3-yl)-1,3,4-thiadiazol-2-amine]	≤ 118 nM	> 10 µM	
Cc1csc(C(C)(O)c2nnc(Nc3ccn(Cc4nccc(C)c4F)n3)s2)n1 (stereo not shown) [Example 37, 1-[5-({1-[(3-fluoro-4-methyl-2-pyridinyl)methyl]-1H-pyrazol-3-yl}amino)-1,3,4-thiadiazol-2-yl]-1-(4-methyl-1,3-thiazol-2-yl)ethanol]	≤ 116 nM	≤ 4 µM	
Cc1csc(C(C)(O)c2nnc(Nc3nn(Cc4csc(C)n4)c4ccccc34)s2)n1 (stereo not shown) [Example 45, 1-(4-methyl-1,3-thiazol-2-yl)-1-[5-({1-[(2-methyl-1,3-thiazol-4-yl)methyl]-1H-indazol-3-yl}amino)-1,3,4-thiadiazol-2-yl]ethanol]		> 10 µM	213 to 1060 nM
Cc1ccn(C(C)c2nnc(Nc3nn(Cc4csc(C)n4)c4ccccc34)s2)n1 (stereo not shown) [Example 46, N-{5-[1-(3-methyl-1H-pyrazol-1-yl)ethyl]-1,3,4-thiadiazol-2-yl}-1-[(2-methyl-1,3-thiazol-4-yl)methyl]-1H-indazol-3-amine]		> 10 µM	> 1150 nM
CCc1csc(C(C)(O)c2nnc(Nc3ccn(Cc4csc(C)n4)n3)s2)n1 (stereo not shown) [Example 47, 1-(4-ethylthiazol-2-yl)-1-(5-((1-((2-methylthiazol-4-yl)methyl)-1H-pyrazol-3-yl)amino)-1,3,4-thiadiazol-2-yl)ethanol]		≤ 1 µM	≤ 115 nM

Reference: patent publication US9334265B2, “3-amino-pyrazole derivatives useful against tuberculosis” (GLAXO GROUP LIMITED, priority 2010, dated 2016)
